Measurements: article PMC5515969, “Effects of 31 FDA approved small-molecule kinase inhibitors on isolated rat liver mitochondria” (Archives of Toxicology, 2016)

Test system: not given
Test: not given
Parameters: method as in product labeling
Conditions: ref product labeling; cited from earlier work

Q: For `N#CC[C@H](C1CCCC1)n1cc(-c2ncnc3[nH]ccc23)cn1` [ruxolitinib phosphate], which “Potential for cardiotoxicity (based on labeling)” value is on record?
A: 0

Test system: not given
Test: not given
Conditions: human therapeutic Cmax at FDA recommended dosages; ref product labeling and drug approval packages at the official FDA website; cited from earlier work

Q: With `Cc1cc(Nc2ncc(Cl)c(Nc3ccccc3S(=O)(=O)C(C)C)n2)c(OC(C)C)cc1C1CCNCC1` [Ceritinib] as the molecule, how does the Cmax read?
A: 1.81 µM

Q: Which Cmax does the source give for `COc1cc2nccc(Oc3ccc(NC(=O)NC4CC4)c(Cl)c3)c2cc1C(N)=O` [Lenvatinib] here?
A: 0.68 µM

Same assay, conditions: human therapeutic maximal blood concentration; ref product labeling; cited from earlier work

Q: For `Cc1cc(Nc2ncc(Cl)c(Nc3ccccc3S(=O)(=O)C(C)C)n2)c(OC(C)C)cc1C1CCNCC1` [Ceritinib], which “Cmax (ng or µg/ml)” value is on record?
A: 1.01 µg/mL

Q: With `COc1cc2nccc(Oc3ccc(NC(=O)NC4CC4)c(Cl)c3)c2cc1C(N)=O` [Lenvatinib] as the molecule, how does the “Cmax (ng or µg/ml)” value read?
A: 0.291 µg/mL

Same assay, conditions: read-out: Cmax at µM; human therapeutic maximal blood concentration; ref product labeling; cited from earlier work

Q: Which Cmax does the source give for `Cc1cc(Nc2ncc(Cl)c(Nc3ccccc3S(=O)(=O)C(C)C)n2)c(OC(C)C)cc1C1CCNCC1` [Ceritinib] here?
A: 1.81 µM

Q: Which Cmax does the source give for `COc1cc2nccc(Oc3ccc(NC(=O)NC4CC4)c(Cl)c3)c2cc1C(N)=O` [Lenvatinib] here?
A: 0.68 µM

Same assay, conditions: read-out: Cmax at µM; therapeutic maximal blood concentration; ref product labeling; cited from earlier work

Q: Which Cmax does the source give for `N#CC[C@H](C1CCCC1)n1cc(-c2ncnc3[nH]ccc23)cn1` [ruxolitinib phosphate] here?
A: 1.2 µM

Same assay, conditions: therapeutic maximal blood concentration; ref product labeling; cited from earlier work

Q: With `N#CC[C@H](C1CCCC1)n1cc(-c2ncnc3[nH]ccc23)cn1` [ruxolitinib phosphate] as the molecule, how does the “Cmax” value read?
A: 368 ng/mL

Test system: not given
Test: not given
Conditions: BBW: black box warning; W&P: Warnings and Precautions; ref product labeling; cited from earlier work

Q: Which Labeling for cardiotoxicity does the source give for `Cc1cc(Nc2ncc(Cl)c(Nc3ccccc3S(=O)(=O)C(C)C)n2)c(OC(C)C)cc1C1CCNCC1` [Ceritinib] here?
A: W&P:QT Interval Prolongation; Bradycardia

Same assay, conditions: ref product labeling; cited from earlier work

Q: With `Cc1cc(Nc2ncc(Cl)c(Nc3ccccc3S(=O)(=O)C(C)C)n2)c(OC(C)C)cc1C1CCNCC1` [Ceritinib] as the molecule, how does the “Potential for cardiotoxicity (based on labeling)” value read?
A: 1

Test system: RCC I
Test: RCC I activity in submitochondrial particles
Assay type: biochemical, rat
Parameters: key to RCC I at 10XCmax / RCC I at 100XCmax / RCC I at 50XCmax / RCC I at 30XCmax / RCC I at 20XCmax: activity relative to DMSO-treated controls (control set as 1 = 100%)
Conditions: 10XCmax; DMSO treated samples set as 1
How it was run: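 Abs 340 nm (I/V) or 600 nm (II), 1-min reads × 6 min; 550 nm (III, IV), 10-s reads × 2 min. RCC I = rotenone-free minus rotenone rate. DMSO control = 1.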

Q: With `Cc1cc(Nc2ncc(Cl)c(Nc3ccccc3S(=O)(=O)C(C)C)n2)c(OC(C)C)cc1C1CCNCC1` [Ceritinib] as the molecule, how does the “RCC I at 10XCmax” value read?
A: 0

Q: With `COc1cc2nccc(Oc3ccc(NC(=O)NC4CC4)c(Cl)c3)c2cc1C(N)=O` [Lenvatinib] as the molecule, how does the “RCC I at 10XCmax” value read?
A: 0

Same assay, conditions: 10XCmax; relative to DMSO treated samples

Q: With `N#CC[C@H](C1CCCC1)n1cc(-c2ncnc3[nH]ccc23)cn1` [ruxolitinib phosphate] as the molecule, how does the “RCC I at 10XCmax” value read?
A: 0

Same assay, conditions: 50-fold Cmax; 15 min; DMSO-treated = 100

Q: With `Cc1cc(Nc2ncc(Cl)c(Nc3ccccc3S(=O)(=O)C(C)C)n2)c(OC(C)C)cc1C1CCNCC1` [Ceritinib] as the molecule, how does the “RCC activity I” value read?
A: 94.04 ± 3.32 % of control

Same assay, conditions: 100-fold Cmax; 15 min; DMSO-treated = 100

Q: With `Cc1cc(Nc2ncc(Cl)c(Nc3ccccc3S(=O)(=O)C(C)C)n2)c(OC(C)C)cc1C1CCNCC1` [Ceritinib] as the molecule, how does the “RCC activity I” value read?
A: 63.74 ± 13.12 % of control

Same assay, conditions: 100XCmax; DMSO-treated = 100

Q: Which “RCC I at 100XCmax” value does the source give for `Cc1cc(Nc2ncc(Cl)c(Nc3ccccc3S(=O)(=O)C(C)C)n2)c(OC(C)C)cc1C1CCNCC1` [Ceritinib] here?
A: 63.74±13.12

Test system: isolated rat liver mitochondria
Test: Mitochondrial swelling (absorbance at 535 nm); as to Swelling 5XCmax: key: 0 indicates that the drug had no effects (negative)
Assay type: biochemical
Conditions: not given

Q: For `Cc1cc(Nc2ncc(Cl)c(Nc3ccccc3S(=O)(=O)C(C)C)n2)c(OC(C)C)cc1C1CCNCC1` [Ceritinib], which “lowest concentration causing mitochondrial swelling” value is on record?
A: 100 fold Cmax

Same assay, conditions: 1XCmax; difference in signal between KI and DMSO treated samples at the end of experiments

Q: Which “Swelling 1XCmax” value does the source give for `Cc1cc(Nc2ncc(Cl)c(Nc3ccccc3S(=O)(=O)C(C)C)n2)c(OC(C)C)cc1C1CCNCC1` [Ceritinib] here?
A: 0

Q: With `COc1cc2nccc(Oc3ccc(NC(=O)NC4CC4)c(Cl)c3)c2cc1C(N)=O` [Lenvatinib] as the molecule, how does the “Swelling 1XCmax” value read?
A: 0

Q: For `N#CC[C@H](C1CCCC1)n1cc(-c2ncnc3[nH]ccc23)cn1` [ruxolitinib phosphate], which “Swelling 1XCmax” value is on record?
A: 0

Same assay, conditions: 2.5XCmax; difference in signal between KI and DMSO treated samples at the end of experiments

Q: Which “Swelling 2.5XCmax” value does the source give for `Cc1cc(Nc2ncc(Cl)c(Nc3ccccc3S(=O)(=O)C(C)C)n2)c(OC(C)C)cc1C1CCNCC1` [Ceritinib] here?
A: 0

Q: For `COc1cc2nccc(Oc3ccc(NC(=O)NC4CC4)c(Cl)c3)c2cc1C(N)=O` [Lenvatinib], which “Swelling 2.5XCmax” value is on record?
A: 0

Q: Which “Swelling 2.5XCmax” value does the source give for `N#CC[C@H](C1CCCC1)n1cc(-c2ncnc3[nH]ccc23)cn1` [ruxolitinib phosphate] here?
A: 0

Same assay, conditions: 5XCmax; difference in signal between KI and DMSO treated samples at the end of experiments

Q: For `Cc1cc(Nc2ncc(Cl)c(Nc3ccccc3S(=O)(=O)C(C)C)n2)c(OC(C)C)cc1C1CCNCC1` [Ceritinib], which “Swelling 5XCmax” value is on record?
A: 0

Q: For `COc1cc2nccc(Oc3ccc(NC(=O)NC4CC4)c(Cl)c3)c2cc1C(N)=O` [Lenvatinib], which “Swelling 5XCmax” value is on record?
A: 0

Q: With `N#CC[C@H](C1CCCC1)n1cc(-c2ncnc3[nH]ccc23)cn1` [ruxolitinib phosphate] as the molecule, how does the “Swelling 5XCmax” value read?
A: 0

Same assay, conditions: 10XCmax; difference in signal between KI and DMSO treated samples at the end of experiments

Q: Which “Swelling 10XCmax” value does the source give for `Cc1cc(Nc2ncc(Cl)c(Nc3ccccc3S(=O)(=O)C(C)C)n2)c(OC(C)C)cc1C1CCNCC1` [Ceritinib] here?
A: 0

Q: With `COc1cc2nccc(Oc3ccc(NC(=O)NC4CC4)c(Cl)c3)c2cc1C(N)=O` [Lenvatinib] as the molecule, how does the “Swelling 10XCmax” value read?
A: 0

Q: With `N#CC[C@H](C1CCCC1)n1cc(-c2ncnc3[nH]ccc23)cn1` [ruxolitinib phosphate] as the molecule, how does the “Swelling 10XCmax” value read?
A: 0

Same assay, conditions: 20XCmax; difference in signal between KI and DMSO treated samples at the end of experiments

Q: Which “Swelling 20XCmax” value does the source give for `Cc1cc(Nc2ncc(Cl)c(Nc3ccccc3S(=O)(=O)C(C)C)n2)c(OC(C)C)cc1C1CCNCC1` [Ceritinib] here?
A: 0

Q: With `COc1cc2nccc(Oc3ccc(NC(=O)NC4CC4)c(Cl)c3)c2cc1C(N)=O` [Lenvatinib] as the molecule, how does the “Swelling 20XCmax” value read?
A: 0

Q: With `N#CC[C@H](C1CCCC1)n1cc(-c2ncnc3[nH]ccc23)cn1` [ruxolitinib phosphate] as the molecule, how does the “Swelling 20XCmax” value read?
A: 0

Same assay, conditions: 30XCmax; difference in signal between KI and DMSO treated samples at the end of experiments

Q: Which “Swelling 30XCmax” value does the source give for `Cc1cc(Nc2ncc(Cl)c(Nc3ccccc3S(=O)(=O)C(C)C)n2)c(OC(C)C)cc1C1CCNCC1` [Ceritinib] here?
A: 0

Q: Which “Swelling 30XCmax” value does the source give for `COc1cc2nccc(Oc3ccc(NC(=O)NC4CC4)c(Cl)c3)c2cc1C(N)=O` [Lenvatinib] here?
A: 0

Q: With `N#CC[C@H](C1CCCC1)n1cc(-c2ncnc3[nH]ccc23)cn1` [ruxolitinib phosphate] as the molecule, how does the “Swelling 30XCmax” value read?
A: 0

Same assay, conditions: 50XCmax; difference in signal between KI and DMSO treated samples at the end of experiments

Q: With `Cc1cc(Nc2ncc(Cl)c(Nc3ccccc3S(=O)(=O)C(C)C)n2)c(OC(C)C)cc1C1CCNCC1` [Ceritinib] as the molecule, how does the “Swelling 50XCmax” value read?
A: 0

Q: Which “Swelling 50XCmax” value does the source give for `COc1cc2nccc(Oc3ccc(NC(=O)NC4CC4)c(Cl)c3)c2cc1C(N)=O` [Lenvatinib] here?
A: 0

Q: Which “Swelling 50XCmax” value does the source give for `N#CC[C@H](C1CCCC1)n1cc(-c2ncnc3[nH]ccc23)cn1` [ruxolitinib phosphate] here?
A: 0

Same assay, conditions: 100XCmax; difference in signal between KI and DMSO treated samples at the end of experiments

Q: With `Cc1cc(Nc2ncc(Cl)c(Nc3ccccc3S(=O)(=O)C(C)C)n2)c(OC(C)C)cc1C1CCNCC1` [Ceritinib] as the molecule, how does the “Swelling 100XCmax” value read?
A: 0.54±0.06

Q: For `COc1cc2nccc(Oc3ccc(NC(=O)NC4CC4)c(Cl)c3)c2cc1C(N)=O` [Lenvatinib], which “Swelling 100XCmax” value is on record?
A: 0

Q: With `N#CC[C@H](C1CCCC1)n1cc(-c2ncnc3[nH]ccc23)cn1` [ruxolitinib phosphate] as the molecule, how does the “Swelling 100XCmax” value read?
A: 0

Same assay, conditions: up to 100-fold Cmax or highest testable concentration; 25 µM calcium chloride

Q: For `Cc1cc(Nc2ncc(Cl)c(Nc3ccccc3S(=O)(=O)C(C)C)n2)c(OC(C)C)cc1C1CCNCC1` [Ceritinib], which “effect on mitochondrial swelling” value is on record?
A: significant mitochondrial swelling

Test system: RCC I–V
Test: Activities of RCC I–V, overall statements
Assay type: biochemical, rat
Conditions: submitochondrial particles, up to 100-fold Cmax or highest testable concentration
Protocol: KIs were incubated with submitochondrial particles (1 mg/ml) for 15 min and then RCC I–V activities measured. […] The activities of DMSO-treated samples (controls) were set as 1. […] The difference between the activity from rotenone-containing buffer and rotenone-absent buffer was considered as RCC I activity. […] For measuring RCC I/V and II activity, the changes in absorbance at 340 and 600 nm, respectively, were determined every 1 min for 6 min. For measuring RCC III and RCC IV, the changes in absorbance at 550 nm were measured every 10 s for 2 min.

Q: For `Cc1cc(Nc2ncc(Cl)c(Nc3ccccc3S(=O)(=O)C(C)C)n2)c(OC(C)C)cc1C1CCNCC1` [Ceritinib], which RCCs inhibited is on record?
A: all five RCCs
